Measurements reported in US20240358693A1, “METHODS OF TREATING PAIN” (Aisa Pharma, Inc., priority 2023, published 2024).

Test system: participants with SSc-RP
Assay: Average duration of weekly RP attacks (minutes)
Type: in vivo, human
From the text: The absolute change in average duration of weekly RP attacks from baseline to the end of each dosing period was and will be a secondary outcome variable. The sponsor-developed participant-informed diary was and will be used to record data. Average duration of weekly RP attacks is defined as the total duration of RP attacks divided by total number of RP attacks within the last 7 days of each dosing period. Total duration of RP attacks during the last 7 days of screening period divided by the total number of RP attacks will be used as baseline for the analysis of all periods. The variable will be calculated similar to frequency data as before.

[1] = Pooled Cilnidipine 20 mg and Cilnidipine 20 mg + Tadalafil 5 mg, Excluding Outliers, by Baseline RCS, subgroup 2, ITT Population - Part A
[2] = Pooled Cilnidipine 20 mg and Cilnidipine 20 mg + Tadalafil 5 mg, ITT Part A
[3] = Pooled Cilnidipine 20 mg and Cilnidipine 20 mg + Tadalafil 5 mg, by Baseline RCS, subgroup 1, ITT Population - Part A
[4] = Pooled Cilnidipine 20 mg and Cilnidipine 20 mg + Tadalafil 5 mg, by Baseline RCS, subgroup 2, ITT Population - Part A
[5] = Pooled Cilnidipine, n=3, Excluding Outliers, ITT Part A
[6] = Pooled Cilnidipine, n=3, ITT Part A
[7] = Pooled Cilnidipine, Baseline RCS subgroup 1 (unnamed), ITT Part A
[8] = Pooled Cilnidipine, Excluding Outliers, Baseline RCS subgroup 1 (unnamed), ITT Part A
[9] = Pooled Cilnidipine, Excluding Outliers, ITT Population - Part A
[10] = Pooled Cilnidipine, Excluding Outliers, by Baseline RCS, subgroup 1, ITT Population - Part A
[11] = Pooled Cilnidipine, by Baseline RCS, subgroup 1, ITT Population - Part A

COCCOC(=O)C1=C(C)NC(C)=C(C(=O)OC/C=C/c2ccccc2)C1c1cccc([N+](=O)[O-])c1 (centres unmarked) [Cilnidipine, cilnidipine]
Average Duration of Weekly RP Attacks (All Attacks) Change from Baseline, Median [1]: -19.09 min | Average Duration of Weekly RP Attacks (All Attacks) Percent Change from Baseline, Mean [1]: −23.33% | Average Duration of Weekly RP Attacks (All Attacks) Percent Change from Baseline, Median [1]: −23.33% | Average Duration of Weekly RP Attacks (All Attacks), Mean [1]: 62.73 min | Average Duration of Weekly RP Attacks (All Attacks), Median [1]: 62.73 min | Average Duration of Weekly RP Attacks (All Attacks) Change from Baseline, Mean [2]: -4.77 min | Average Duration of Weekly RP Attacks (All Attacks) Change from Baseline, Median [2]: -2.73 min | Average Duration of Weekly RP Attacks (All Attacks) Percent Change from Baseline, Mean [2]: −13.86% | Average Duration of Weekly RP Attacks (All Attacks) Percent Change from Baseline, Median [2]: −2.74% | Average Duration of Weekly RP Attacks (All Attacks), Mean [2]: 27.61 min | Average Duration of Weekly RP Attacks (All Attacks), Median [2]: 22.36 min | Average Duration of Weekly RP Attacks (All Attacks) Change from Baseline, Mean [3]: 0.00 min | Average Duration of Weekly RP Attacks (All Attacks) Change from Baseline, Median [3]: 2.16 min | Average Duration of Weekly RP Attacks (All Attacks) Percent Change from Baseline, Mean [3]: −10.70% | Average Duration of Weekly RP Attacks (All Attacks) Percent Change from Baseline, Median [3]: 17.86% | Average Duration of Weekly RP Attacks (All Attacks), Mean [3]: 15.91 min | Average Duration of Weekly RP Attacks (All Attacks), Median [3]: 14.27 min | Average Duration of Weekly RP Attacks (All Attacks) Change from Baseline, Mean [4]: -19.09 min | Average Duration of Weekly RP Attacks (All Attacks) Change from Baseline, Median [4]: -19.09 min | Average Duration of Weekly RP Attacks (All Attacks) Percent Change from Baseline, Mean [4]: −23.33% | Average Duration of Weekly RP Attacks (All Attacks) Percent Change from Baseline, Median [4]: −23.33% | Average Duration of Weekly RP Attacks (All Attacks), Mean [4]: 62.73 min | Average Duration of Weekly RP Attacks (All Attacks), Median [4]: 62.73 min | Duration (Pooled Cilnidipine (n = 7)): 20% | Average Duration of Weekly Symptomatic RP Attacks, Change from Baseline, Mean [5]: -7.67 min | Average Duration of Weekly Symptomatic RP Attacks, Change from Baseline, Median [5]: -10.33 min | Average Duration of Weekly Symptomatic RP Attacks, Mean [5]: 21.70 min | Average Duration of Weekly Symptomatic RP Attacks, Median [5]: 30.45 min | Average Duration of Weekly Symptomatic RP Attacks, Percent Change from Baseline, Mean [5]: −32.23% | Average Duration of Weekly Symptomatic RP Attacks, Percent Change from Baseline, Median [5]: −34.60% | Average Duration of Weekly Symptomatic RP Attacks, Change from Baseline, Mean [6]: -7.67 min | Average Duration of Weekly Symptomatic RP Attacks, Change from Baseline, Median [6]: -10.33 min | Average Duration of Weekly Symptomatic RP Attacks, Mean [6]: 21.70 min | Average Duration of Weekly Symptomatic RP Attacks, Median [6]: 30.45 min | Average Duration of Weekly Symptomatic RP Attacks, Percent Change from Baseline, Mean [6]: −32.23% | Average Duration of Weekly Symptomatic RP Attacks, Percent Change from Baseline, Median [6]: −34.60% | Average Duration of Weekly Symptomatic RP Attacks, Change from Baseline, Mean [7]: -7.67 min | Average Duration of Weekly Symptomatic RP Attacks, Change from Baseline, Median [7]: -10.33 min | Average Duration of Weekly Symptomatic RP Attacks, Mean [7]: 21.70 min | Average Duration of Weekly Symptomatic RP Attacks, Median [7]: 30.45 min | Average Duration of Weekly Symptomatic RP Attacks, Percent Change from Baseline, Mean [7]: −32.23% | Average Duration of Weekly Symptomatic RP Attacks, Percent Change from Baseline, Median [7]: −34.60% | Average Duration of Weekly Symptomatic RP Attacks, Change from Baseline, Mean [8]: -7.67 min | Average Duration of Weekly Symptomatic RP Attacks, Change from Baseline, Median [8]: -10.33 min | Average Duration of Weekly Symptomatic RP Attacks, Mean [8]: 21.70 min | Average Duration of Weekly Symptomatic RP Attacks, Median [8]: 30.45 min | Average Duration of Weekly Symptomatic RP Attacks, Percent Change from Baseline, Mean [8]: −32.23% | Average Duration of Weekly Symptomatic RP Attacks, Percent Change from Baseline, Median [8]: −34.60% | Average Duration of Weekly RP Attacks (All Attacks) Change from Baseline, Mean [9]: -3.55 min | Average Duration of Weekly RP Attacks (All Attacks) Change from Baseline, Median [9]: -7.63 min | Average Duration of Weekly RP Attacks (All Attacks) Percent Change from Baseline, Mean [9]: −23.71% | Average Duration of Weekly RP Attacks (All Attacks) Percent Change from Baseline, Median [9]: −21.20% | Average Duration of Weekly RP Attacks (All Attacks), Mean [9]: 21.66 min | Average Duration of Weekly RP Attacks (All Attacks), Median [9]: 30.45 min | Average Duration of Weekly RP Attacks (All Attacks) Change from Baseline, Mean [10]: -3.55 min | Average Duration of Weekly RP Attacks (All Attacks) Change from Baseline, Median [10]: -7.63 min | Average Duration of Weekly RP Attacks (All Attacks) Percent Change from Baseline, Mean [10]: −23.71% | Average Duration of Weekly RP Attacks (All Attacks) Percent Change from Baseline, Median [10]: −21.20% | Average Duration of Weekly RP Attacks (All Attacks), Mean [10]: 21.66 min | Average Duration of Weekly RP Attacks (All Attacks), Median [10]: 30.45 min | Average Duration of Weekly RP Attacks (All Attacks) Change from Baseline, Mean (Pooled Cilnidipine, ITT Part A): -3.55 min | Average Duration of Weekly RP Attacks (All Attacks) Change from Baseline, Median (Pooled Cilnidipine, ITT Part A): -7.63 min | Average Duration of Weekly RP Attacks (All Attacks) Percent Change from Baseline, Mean (Pooled Cilnidipine, ITT Part A): −23.71% | Average Duration of Weekly RP Attacks (All Attacks) Percent Change from Baseline, Median (Pooled Cilnidipine, ITT Part A): −21.20% | Average Duration of Weekly RP Attacks (All Attacks), Mean (Pooled Cilnidipine, ITT Part A): 21.66 min | Average Duration of Weekly RP Attacks (All Attacks), Median (Pooled Cilnidipine, ITT Part A): 30.45 min | Average Duration of Weekly RP Attacks (All Attacks) Change from Baseline, Mean [11]: -3.55 min | Average Duration of Weekly RP Attacks (All Attacks) Change from Baseline, Median [11]: -7.63 min | Average Duration of Weekly RP Attacks (All Attacks) Percent Change from Baseline, Mean [11]: −23.71% | Average Duration of Weekly RP Attacks (All Attacks) Percent Change from Baseline, Median [11]: −21.20% | Average Duration of Weekly RP Attacks (All Attacks), Mean [11]: 21.66 min | Average Duration of Weekly RP Attacks (All Attacks), Median [11]: 30.45 min | duration of Raynaud attacks, direction of change (cilnidipine or cilnidipine plus tadalafil (n=7), tadalafil monotherapy (n=2)): decrease greater than that seen in placebo treated patients | patients in whom reduction in duration exceeded a 25% threshold (cilnidipine or cilnidipine plus tadalafil treated patients): 4 of 7
